Results reported in patent publication US20140050670A1, “MULTIFUNCTIONAL NANOPARTICLES” (THE UNIVERSITY OF WESTERN AUSTRALIA, priority 2010, published 2014).

Tests used:
PC12 cells = test: Intracellular calcium quantification after glutamate challenge (Fura-2); format: cell-based, rat; conditions: glutamate 10 mM, 24 hr; nanospheres 25 μg mL^−1, free lomerizine 1 μM; relative to ENP; dihydrochloride
Excerpt: The pH in early endosomes is mildly acidic and falls below 5 as endosomes mature, so release of lomerizine from nanospheres could be triggered under these conditions. Here, we administered lomerizine to PC12 cells using nanospheres, and measured intracellular calcium concentrations after glutamate challenge to see if intracellular release of lomerizine could be employed for neuroprotection. PC12 cells express both N- and L-type VGCCs, but not T-type channels, and in undifferentiated PC12 cells, glutamate exposure (1-10 mm) over 24 hr causes oxidative stress and increased [Ca^2+]i.
Cells receiving nanosphere treatments were incubated with nanospheres containing lomerizine, with or without modification with PEI (LNP+PEI and LNP−PEI respectively), or nanospheres containing no lomerizine but with PEI modification (ENP). […]
For experiments, cells were seeded in 24-well plates containing 10 mm glass coverslips coated with poly(l-lysine) at a cell density of 5.0×10^4 mL^−1. […] After a further 24 hr, [Ca^2+]i was quantified as follows. […] Fluorescent data were measured on a Hamamatsu Orca ER digital camera attached to an inverted Nikon TE2000-U microscope, and analysed using Metamorph v6.3. […] [Ca^2+]i was calculated according to the equation: […]

[1] = humans; cited from earlier work
[2] = rats, 24 hr after oral administration; cited from earlier work
[3] = system: L-, T- and N-type Ca^2+ channels; conditions: cited from earlier work
[4] = system: NMDA, kainate or AMPA binding sites; conditions: cited from earlier work

In the case of `COc1ccc(CN2CCN(C(c3ccc(F)cc3)c3ccc(F)cc3)CC2)c(OC)c1OC.Cl.Cl` [Lomerizine, 1-[bis(4-fluorophenyl)methyl]-4-(2,3,4-trimethoxybenzyl)piperazine dihydrochloride], the “intracellular calcium [Ca^2+]i after glutamate” value (PC12 cells) is listed as “significant (p≦0.001) decrease”, the elimination half-life [1] is listed as 108 h and the “dose excreted in the feces” value [2] is listed as 51.7%. For the same compound, the “dose excreted in urine” value [2] was 4.1%, the “calcium channel blockade selectivity” value [3] was “selectively blocks L- and T-type Ca^2+ channels, but not N-type channels” and the “affinity for NMDA, kainate or AMPA binding sites” value [4] was “no reported affinity”.
